We go through eleven molecules from ChEMBL document CHEMBL5352392, “Design, synthesis, and biological evaluation of novel dual inhibitors of heat shock protein 90/mammalian target of rapamycin (Hsp90/mTOR) against bladder cancer cells” (Eur J Med Chem, 2022).

Assay [1] has as its target Phosphatidylinositol 4,5-bisphosphate 3-kinase catalytic subunit alpha isoform (Homo sapiens, UniProt P42336). Description: Inhibition of PI3Kalpha (unknown origin) by kinase profiling assay.
In assay [2] the target is T1, Serine/threonine-protein kinase mTOR (Homo sapiens, UniProt P42345). Description: Inhibition of mTOR (unknown origin) by kinase profiling assay.
The target in assay [3] is T2, Heat shock protein HSP90 (Homo sapiens, UniProt P07900+P08238). Description: Inhibition of Hsp90 (unknown origin) by TR-FRET assay. Format: protein assay. (In general: Time-resolved FRET reads energy transfer from a long-lived donor to a nearby acceptor.)
Assay [4] has as its system J82. The assay is described as follows: Antiproliferative activity against human J82 cells assessed as inhibition of cell proliferation at 1 uM by CCK8 assay relative to control. In kind it is functional. For orientation: Formazan colour is commonly taken as a measure of viable cells.
Assay [5] has as its system T-24. Description: Antiproliferative activity against human T24 cells assessed as inhibition of cell proliferation at 1 uM by CCK8 assay relative to control. In kind it is functional.
Assay [6] has as its target T1, Serine/threonine-protein kinase mTOR. The assay is described as follows: Inhibition of mTOR (unknown origin) at 100 nM by kinase profiling assay relative to control.
Assay [7] addresses T2, Heat shock protein HSP90. The settings on record: dose 100.0 nM.
Description: Inhibition of Hsp90 (unknown origin) at 100 nM by TR-FRET assay relative to control
Assay [8] has as its system T-24. The assay is described as follows: Antiproliferative activity against human T24 cells assessed as inhibition of cell proliferation by CCK8 assay. Format: functional, cell-based.
Assay [9] concerns SW780. Description: Antiproliferative activity against human SW780 cells assessed as inhibition of cell proliferation at 1 uM by CCK8 assay relative to control. In kind it is functional.
For assay [10], the system named is J82. Description: Antiproliferative activity against human J82 cells assessed as inhibition of cell proliferation by CCK8 assay. Format: functional, cell-based.
In assay [11] the test system is SW780. The assay is described as follows: Antiproliferative activity against human SW780 cells assessed as inhibition of cell proliferation by CCK8 assay. In kind it is functional, cell-based.

The structures appear in SMILES notation.

Chain of Phosphatidylinositol 4,5-bisphosphate 3-kinase catalytic subunit alpha isoform (P42336 whole entry, canonical isoform): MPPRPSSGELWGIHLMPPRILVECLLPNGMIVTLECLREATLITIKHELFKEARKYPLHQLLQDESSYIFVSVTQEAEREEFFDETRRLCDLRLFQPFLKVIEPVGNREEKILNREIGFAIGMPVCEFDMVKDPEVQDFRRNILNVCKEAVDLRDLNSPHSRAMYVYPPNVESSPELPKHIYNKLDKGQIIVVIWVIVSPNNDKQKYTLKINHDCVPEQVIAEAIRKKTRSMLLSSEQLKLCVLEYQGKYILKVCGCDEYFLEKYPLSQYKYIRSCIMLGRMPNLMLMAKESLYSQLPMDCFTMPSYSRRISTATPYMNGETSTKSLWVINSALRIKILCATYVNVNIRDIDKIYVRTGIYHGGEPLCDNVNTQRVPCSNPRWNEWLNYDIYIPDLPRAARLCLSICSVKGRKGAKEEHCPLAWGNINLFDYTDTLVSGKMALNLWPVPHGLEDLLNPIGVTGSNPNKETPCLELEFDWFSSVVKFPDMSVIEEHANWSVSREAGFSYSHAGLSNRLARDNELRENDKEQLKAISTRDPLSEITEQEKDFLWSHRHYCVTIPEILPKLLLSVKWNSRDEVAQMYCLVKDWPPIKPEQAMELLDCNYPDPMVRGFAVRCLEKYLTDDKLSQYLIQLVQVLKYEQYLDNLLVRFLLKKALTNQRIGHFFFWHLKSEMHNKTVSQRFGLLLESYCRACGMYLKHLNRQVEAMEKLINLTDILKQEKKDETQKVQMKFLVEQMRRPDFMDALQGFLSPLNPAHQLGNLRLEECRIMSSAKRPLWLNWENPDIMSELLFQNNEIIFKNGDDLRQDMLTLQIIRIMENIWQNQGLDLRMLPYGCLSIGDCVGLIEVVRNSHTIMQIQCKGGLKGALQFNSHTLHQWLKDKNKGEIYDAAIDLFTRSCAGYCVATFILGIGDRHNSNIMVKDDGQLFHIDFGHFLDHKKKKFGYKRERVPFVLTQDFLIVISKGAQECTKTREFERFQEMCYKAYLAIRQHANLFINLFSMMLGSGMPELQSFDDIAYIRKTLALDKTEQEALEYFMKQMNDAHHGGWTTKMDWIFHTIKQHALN

In general, IC50 refers to the point on the concentration scale where inhibition reaches its midpoint. One may read the inhibition as the drop in the measured response relative to a control, in per cent. As for `CC(C)c1cc(C(=O)N2CCc3c(sc4nc(-c5ccc(NC(=O)Nc6cc(Cl)cc(Cl)c6)cc5)nc(N5CCOCC5)c34)C2)c(O)cc1O`, the IC50 in assay [1] worked out at 5.63 µM; in assay [2], 0.106 µM; against Heat shock protein HSP90 [3], 0.365 µM; in the assay on T-24 [8] it was 0.55 µM; in the assay on J82 [10], 1.59 µM; in the assay on SW780 [11] it was 0.69 µM. Also, the values for the inhibition at 1 µM in the assay with J82 [4], in the assay with T-24 [5] and in the assay with SW780 [9] were 69.1%, 67% and 77.8%, respectively. For the same molecule, the inhibition in [6] is 73.5%; against Heat shock protein HSP90 [7], 68.3%.

On to `CCNC(=O)c1noc(-c2cc(C(C)C)c(O)cc2O)c1-c1ccc(CN2CCOCC2)cc1` [LUMINESPIB], for which the inhibition at 1 µM in the assay with J82 [4] was 35.1%; with T-24 [5], 38.8%; with SW780 [9], 46.4%. For the same molecule, the IC50 was found to be 4.93 µM in the assay on T-24 [8], 5.2 µM in the assay with J82 [10] and 3.95 µM in the assay on SW780 [11].

Turning to `COc1ccc(-c2ccc3c(N4CCOC[C@@H]4C)nc(N4CCOC[C@@H]4C)nc3n2)cc1CO` [AZD-8055], the IC50 in assay [1] came out at 4.45 µM; in the assay with T-24 [8] it was 0.54 µM; in the assay with J82 [10], 0.65 µM; in the assay with SW780 [11], 0.81 µM. Moreover, the inhibition at 1 µM in the assay on J82 [4] is 72.4%; with T-24 [5] it was 73.3%; with SW780 [9], 79.6%. For the same molecule, in [6], the inhibition is 93.3%.

`CC(C)c1cc(C(=O)N2CCc3c(sc4nc(-c5ccc(NC(=O)Nc6cccc(C(F)(F)F)c6)cc5)nc(N5CCOCC5)c34)C2)c(O)cc1O`: the 50% inhibitory concentration (IC50) came out at 2.45 µM in [1]; 0.218 µM in assay [2]; 0.126 µM at Heat shock protein HSP90 [3]; 0.94 µM in the assay on T-24 [8]; 2.76 µM with J82 [10]; 0.66 µM in the assay on SW780 [11]. The inhibition at 1 µM in the assay on J82 [4] is 69.1%; in the assay on T-24 [5], 82.5%; with SW780 [9], 65.6%. Besides, the results for the inhibition (in [6]; at Heat shock protein HSP90 [7]) were 66.3% and 73.8%, respectively.

As to `CC(C)c1cc(C(=O)N2CCc3c(sc4nc(N5CCOC[C@@H]5C)nc(N5CCOC[C@@H]5C)c34)C2)c(O)cc1O`, the IC50 in assay [1] was above 10 µM; in assay [2] it was 0.073 µM; against Heat shock protein HSP90 [3], 0.476 µM; in the assay on T-24 [8], 1.68 µM; with J82 [10], 0.78 µM; with SW780 [11], 0.37 µM. The inhibition at 1 µM in the assay on J82 [4] is 52.8%; in the assay with T-24 [5], 55.4%; in the assay on SW780 [9], 79.9%. The inhibition in assay [6] is 75.4%; against Heat shock protein HSP90 [7], 56.6%.

On to `CC(C)c1cc(C(=O)N2CCc3c(sc4nc(N5CCOCC5)nc(N5CCC(N(C)C)CC5)c34)C2)c(O)cc1O`, for which the inhibition at 1 µM was found to be 52.7% in the assay with J82 [4], 55.8% in the assay on T-24 [5] and 64.5% in the assay on SW780 [9]. Moreover, the inhibition in [6] was found to be 76.7%; at Heat shock protein HSP90 [7] it was 45.5%.

With `CC(C)c1cc(C(=O)N2CCc3c(sc4nc(NCCN5CCOCC5)nc(N5CCOCC5)c34)C2)c(O)cc1O`, the inhibition at 1 µM in the assay with J82 [4] turned out to be 72.2%; in the assay on T-24 [5], 78%; in the assay on SW780 [9] it was 55.2%. The inhibition turned out to be 68.2% in assay [6] and 62.1% against Heat shock protein HSP90 [7].

With `CC(C)c1cc(C(=O)N2CCc3c(sc4nc(-c5ccc(NC(=O)Nc6ccccc6Cl)cc5)nc(N5CCOCC5)c34)C2)c(O)cc1O`, the figures for the inhibition at 1 µM in the assay on J82 [4], in the assay on T-24 [5] and with SW780 [9] were 72.4%, 73.8% and 88.8%, respectively. Further, the inhibition amounted to 76.8% in [6] and 64.5% against Heat shock protein HSP90 [7].

`CC(C)c1cc(C(=O)N2CCc3c(sc4nc(-c5ccc(NC(=O)Nc6cccc(Cl)c6)cc5)nc(N5CCOCC5)c34)C2)c(O)cc1O`: the IC50 in assay [1] was found to be 3.6 µM; in assay [2], 0.082 µM; at Heat shock protein HSP90 [3], 0.147 µM; with T-24 [8] it was 1.72 µM; in the assay on J82 [10], 0.76 µM; in the assay with SW780 [11], 0.74 µM. Besides, the inhibition at 1 µM turned out to be 84.7% in the assay on J82 [4], 65% in the assay on T-24 [5] and 89.8% with SW780 [9]. The inhibition in [6] was found to be 75.2%; against Heat shock protein HSP90 [7], 72.7%.

With `Cc1ccc(NC(=O)Nc2ccc(-c3nc(N4CCOCC4)c4c5c(sc4n3)CN(C(=O)c3cc(C(C)C)c(O)cc3O)CC5)cc2)cc1`, the inhibition at 1 µM was determined as 65.8% with J82 [4], 67.8% in the assay on T-24 [5] and 74.5% in the assay with SW780 [9]. The inhibition in [6] came out at 71.8%; against Heat shock protein HSP90 [7] it was 61.6%.

Regarding `CC(C)c1cc(C(=O)N2CCc3c(sc4nc(N5CCN(C)CC5)nc(N5CCOCC5)c34)C2)c(O)cc1O`, the inhibition at 1 µM in the assay with J82 [4] came out at 59.2%; with T-24 [5], 69.9%; with SW780 [9], 68%. Also, the inhibition in assay [6] was found to be 62.6%; at Heat shock protein HSP90 [7], 63.8%.
